Test system: D. melanogaster nAChRs
Assay: Comparison of agonist activity between nAChRs expressed in X. laevis oocytes (one-way ANOVA, Kruskal-Wallis);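 for Difference of Imax values: Imax relative to maximal plateau response to ACh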
Type: cell-based
Method in brief: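 Agonist pEC50 values, derived from Hill fits of normalised peak currents, were compared across receptors by one-way ANOVA or Kruskal-Wallis. Currents came from oocytes clamped at −100 mV and perfused with atropine-containing saline (0.5 μM), 3–4 days after cRNA injection of fly nAChR subunits and co-factors.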

[1] = Dα1/Dα2/Dα3/Dβ1 vs. Dα1/Dα2/Dα3/Dβ1/Dβ2
[2] = Dα1/Dα2/Dα3/Dβ1 vs. Dα1/Dα2/Dβ1/Dβ2
[3] = Dα1/Dα2/Dα3/Dβ1 vs. Dα1/Dα3/Dβ1/Dβ2
[4] = Dα1/Dα2/Dα3/Dβ1 vs. Dα1/Dβ1/Dβ2
[5] = Dα1/Dα2/Dα3/Dβ1 vs. Dα2/Dα3/Dβ1/Dβ2
[6] = Dα1/Dα2/Dα3/Dβ1 vs. Dα3/Dβ1/Dβ2
[7] = Dα1/Dα2/Dβ1/Dβ2 vs. Dα1/Dα2/Dα3/Dβ1/Dβ2
[8] = Dα1/Dα2/Dβ1/Dβ2 vs. Dα2/Dα3/Dβ1/Dβ2
[9] = Dα1/Dα2/Dβ1 vs. Dα1/Dα2/Dα3/Dβ1
[10] = Dα1/Dα2/Dβ1 vs. Dα1/Dα2/Dα3/Dβ1/Dβ2
[11] = Dα1/Dα2/Dβ1 vs. Dα1/Dα2/Dβ1/Dβ2
[12] = Dα1/Dα2/Dβ1 vs. Dα1/Dα3/Dβ1/Dβ2
[13] = Dα1/Dα2/Dβ1 vs. Dα2/Dα3/Dβ1/Dβ2
[14] = Dα1/Dα3/Dβ1/Dβ2 vs. Dα1/Dα2/Dα3/Dβ1/Dβ2
[15] = Dα1/Dα3/Dβ1/Dβ2 vs. Dα1/Dα2/Dβ1/Dβ2
[16] = Dα1/Dα3/Dβ1/Dβ2 vs. Dα2/Dα3/Dβ1/Dβ2
[17] = Dα1/Dα3/Dβ1 vs. Dα1/Dα2/Dα3/Dβ1
[18] = Dα1/Dα3/Dβ1 vs. Dα1/Dα2/Dα3/Dβ1/Dβ2
[19] = Dα1/Dα3/Dβ1 vs. Dα1/Dα2/Dβ1/Dβ2
[20] = Dα1/Dα3/Dβ1 vs. Dα1/Dα3/Dβ1/Dβ2
[21] = Dα1/Dα3/Dβ1 vs. Dα2/Dα3/Dβ1/Dβ2
[22] = Dα1/Dβ1/Dβ2 vs. Dα1/Dα2/Dα3/Dβ1/Dβ2
[23] = Dα1/Dβ1/Dβ2 vs. Dα1/Dα2/Dβ1/Dβ2
[24] = Dα1/Dβ1/Dβ2 vs. Dα1/Dα3/Dβ1/Dβ2
[25] = Dα1/Dβ1/Dβ2 vs. Dα2/Dα3/Dβ1/Dβ2
[26] = Dα1/Dβ1 vs. Dα1/Dα2/Dα3/Dβ1/Dβ2
[27] = Dα2/Dα3/Dβ1/Dβ2 vs. Dα1/Dα2/Dα3/Dβ1/Dβ2
[28] = Dα2/Dα3/Dβ1 vs. Dα1/Dα2/Dα3/Dβ1
[29] = Dα2/Dα3/Dβ1 vs. Dα1/Dα2/Dα3/Dβ1/Dβ2
[30] = Dα2/Dα3/Dβ1 vs. Dα1/Dα2/Dβ1/Dβ2
[31] = Dα2/Dα3/Dβ1 vs. Dα1/Dα3/Dβ1/Dβ2
[32] = Dα2/Dα3/Dβ1 vs. Dα2/Dα3/Dβ1/Dβ2
[33] = Dα3/Dβ1/Dβ2 vs. Dα1/Dα2/Dα3/Dβ1/Dβ2
[34] = Dα3/Dβ1/Dβ2 vs. Dα1/Dα2/Dβ1/Dβ2
[35] = Dα3/Dβ1/Dβ2 vs. Dα1/Dα3/Dβ1/Dβ2
[36] = Dα3/Dβ1/Dβ2 vs. Dα2/Dα3/Dβ1/Dβ2
[37] = Dα3/Dβ1 vs. Dα1/Dα2/Dα3/Dβ1/Dβ2

N#C/N=C1\SCCN1Cc1ccc(Cl)nc1 [Thiacloprid, thiacloprid]
Difference of pEC50 values, nAChRs compared (Dα1/Dα2/Dα3/Dβ1/Dβ2 vs. Dα1/Dα2/Dα4/Dβ1/Dβ2): 0.17 | Difference of pEC50 values, nAChRs compared (Dα1/Dα2/Dα3/Dβ1/Dβ2 vs. Dα1/Dα2/Dβ1/Dβ2/Dβ3): -0.53 | Difference of pEC50 values, nAChRs compared (Dα1/Dα2/Dα3/Dβ1/Dβ2 vs. Dα1/Dα3/Dα4/Dβ1/Dβ2): -0.78 | Difference of pEC50 values, nAChRs compared (Dα1/Dα2/Dα3/Dβ1/Dβ2 vs. Dα1/Dα3/Dβ1/Dβ2/Dβ3): -1.45 | Difference of pEC50 values, nAChRs compared (Dα1/Dα2/Dα3/Dβ1/Dβ2 vs. Dα2/Dα3/Dα4/Dβ1/Dβ2): -0.81 | Difference of pEC50 values, nAChRs compared (Dα1/Dα2/Dα3/Dβ1/Dβ2 vs. Dα2/Dα3/Dβ1/Dβ2/Dβ3): -1.13 | Difference of Imax values [1]: -0.012 | Difference of pEC50 values [1]: 0.55 | Difference of Imax values [2]: -0.027 | Difference of pEC50 values [2]: 0.63 | Difference of Imax values [3]: -0.060 | Difference of pEC50 values [3]: -0.27 | Difference of Imax values [4]: 0.004 | Difference of pEC50 values [4]: -0.13 | Difference of Imax values [5]: 0.030 | Difference of pEC50 values [5]: -0.35 | Difference of Imax values [6]: 0.025 | Difference of pEC50 values [6]: -0.59 | Difference of Imax values [7]: 0.015 | Difference of pEC50 values [7]: -0.08 | Difference of Imax values [8]: 0.057 | Difference of pEC50 values [8]: -0.98 | Difference of Imax values [9]: -0.022 | Difference of pEC50 values [9]: -0.81 | Difference of Imax values [10]: -0.034 | Difference of pEC50 values [10]: -0.26 | Difference of Imax values [11]: -0.049 | Difference of pEC50 values [11]: -0.18 | Difference of Imax values [12]: -0.082 | Difference of pEC50 values [12]: -1.08 | Difference of Imax values (Dα1/Dα2/Dβ1 vs. Dα1/Dβ1/Dβ2): -0.018 | Difference of pEC50 values (Dα1/Dα2/Dβ1 vs. Dα1/Dβ1/Dβ2): -0.94 | Difference of Imax values (Dα1/Dα2/Dβ1 vs. Dα2/Dα3/Dβ1): -0.020 | Difference of pEC50 values (Dα1/Dα2/Dβ1 vs. Dα2/Dα3/Dβ1): 0.00 | Difference of Imax values [13]: 0.008 | Difference of pEC50 values [13]: -1.16 | Difference of Imax values (Dα1/Dα2/Dβ1 vs. Dα3/Dβ1/Dβ2): 0.003 | Difference of pEC50 values (Dα1/Dα2/Dβ1 vs. Dα3/Dβ1/Dβ2): -1.40 | Difference of Imax values [14]: 0.048 | Difference of pEC50 values [14]: 0.82 | Difference of Imax values [15]: 0.033 | Difference of pEC50 values [15]: 0.90 | Difference of Imax values [16]: 0.090 | Difference of pEC50 values [16]: -0.08 | Difference of Imax values [17]: 0.000 | Difference of pEC50 values [17]: 0.34 | Difference of Imax values [18]: -0.012 | Difference of pEC50 values [18]: 0.89 | Difference of Imax values (Dα1/Dα3/Dβ1 vs. Dα1/Dα2/Dβ1): 0.022 | Difference of pEC50 values (Dα1/Dα3/Dβ1 vs. Dα1/Dα2/Dβ1): 1.15 | Difference of Imax values [19]: -0.027 | Difference of pEC50 values [19]: 0.97 | Difference of Imax values [20]: -0.060 | Difference of pEC50 values [20]: 0.07 | Difference of Imax values (Dα1/Dα3/Dβ1 vs. Dα1/Dβ1/Dβ2): 0.004 | Difference of pEC50 values (Dα1/Dα3/Dβ1 vs. Dα1/Dβ1/Dβ2): 0.21 | Difference of Imax values (Dα1/Dα3/Dβ1 vs. Dα2/Dα3/Dβ1): 0.002 | Difference of pEC50 values (Dα1/Dα3/Dβ1 vs. Dα2/Dα3/Dβ1): 1.15 | Difference of Imax values [21]: 0.030 | Difference of pEC50 values [21]: -0.01 | Difference of Imax values (Dα1/Dα3/Dβ1 vs. Dα3/Dβ1/Dβ2): 0.025 | Difference of pEC50 values (Dα1/Dα3/Dβ1 vs. Dα3/Dβ1/Dβ2): -0.25 | Difference of Imax values [22]: -0.016 | Difference of pEC50 values [22]: 0.68 | Difference of Imax values [23]: -0.031 | Difference of pEC50 values [23]: 0.76 | Difference of Imax values [24]: -0.064 | Difference of pEC50 values [24]: -0.14 | Difference of Imax values [25]: 0.026 | Difference of pEC50 values [25]: -0.22 | Difference of Imax values (Dα1/Dβ1/Dβ2 vs. Dα3/Dβ1/Dβ2): 0.021 | Difference of pEC50 values (Dα1/Dβ1/Dβ2 vs. Dα3/Dβ1/Dβ2): -0.46 | Difference of Imax values (Dα1/Dβ1 vs. Dα1/Dα2/Dα3/Dβ1): 0.044 | Difference of pEC50 values (Dα1/Dβ1 vs. Dα1/Dα2/Dα3/Dβ1): 0.06 | Difference of Imax values [26]: 0.032 | Difference of pEC50 values [26]: 0.61 | Difference of Imax values (Dα1/Dβ1 vs. Dα1/Dα2/Dβ1): 0.066 | Difference of pEC50 values (Dα1/Dβ1 vs. Dα1/Dα2/Dβ1): 0.87 | Difference of Imax values (Dα1/Dβ1 vs. Dα1/Dα2/Dβ1/Dβ2): 0.017 | Difference of pEC50 values (Dα1/Dβ1 vs. Dα1/Dα2/Dβ1/Dβ2): 0.69 | Difference of Imax values (Dα1/Dβ1 vs. Dα1/Dα3/Dβ1): 0.044 | Difference of pEC50 values (Dα1/Dβ1 vs. Dα1/Dα3/Dβ1): -0.28 | Difference of Imax values (Dα1/Dβ1 vs. Dα1/Dα3/Dβ1/Dβ2): -0.016 | Difference of pEC50 values (Dα1/Dβ1 vs. Dα1/Dα3/Dβ1/Dβ2): -0.21 | Difference of Imax values (Dα1/Dβ1 vs. Dα1/Dβ1/Dβ2): 0.048 | Difference of pEC50 values (Dα1/Dβ1 vs. Dα1/Dβ1/Dβ2): -0.07 | Difference of Imax values (Dα1/Dβ1 vs. Dα2/Dα3/Dβ1): 0.046 | Difference of pEC50 values (Dα1/Dβ1 vs. Dα2/Dα3/Dβ1): 0.87 | Difference of Imax values (Dα1/Dβ1 vs. Dα2/Dα3/Dβ1/Dβ2): 0.074 | Difference of pEC50 values (Dα1/Dβ1 vs. Dα2/Dα3/Dβ1/Dβ2): -0.29 | Difference of Imax values (Dα1/Dβ1 vs. Dα3/Dβ1): 0.075 | Difference of pEC50 values (Dα1/Dβ1 vs. Dα3/Dβ1): -0.01 | Difference of Imax values (Dα1/Dβ1 vs. Dα3/Dβ1/Dβ2): 0.069 | Difference of pEC50 values (Dα1/Dβ1 vs. Dα3/Dβ1/Dβ2): -0.53 | Difference of Imax values [27]: -0.042 | Difference of pEC50 values [27]: 0.90 | Difference of Imax values [28]: -0.002 | Difference of pEC50 values [28]: -0.81 | Difference of Imax values [29]: -0.014 | Difference of pEC50 values [29]: -0.26 | Difference of Imax values [30]: -0.029 | Difference of pEC50 values [30]: -0.18 | Difference of Imax values [31]: -0.062 | Difference of pEC50 values [31]: -1.08 | Difference of Imax values (Dα2/Dα3/Dβ1 vs. Dα1/Dβ1/Dβ2): 0.002 | Difference of pEC50 values (Dα2/Dα3/Dβ1 vs. Dα1/Dβ1/Dβ2): -0.94 | Difference of Imax values [32]: 0.028 | Difference of pEC50 values [32]: -1.16 | Difference of Imax values (Dα2/Dα3/Dβ1 vs. Dα3/Dβ1/Dβ2): 0.023 | Difference of pEC50 values (Dα2/Dα3/Dβ1 vs. Dα3/Dβ1/Dβ2): -1.40 | Difference of Imax values [33]: -0.037 | Difference of pEC50 values [33]: 1.14 | Difference of Imax values [34]: -0.052 | Difference of pEC50 values [34]: 1.22 | Difference of Imax values [35]: -0.085 | Difference of pEC50 values [35]: 0.32 | Difference of Imax values [36]: 0.005 | Difference of pEC50 values [36]: 0.24 | Difference of Imax values (Dα3/Dβ1 vs. Dα1/Dα2/Dα3/Dβ1): -0.031 | Difference of pEC50 values (Dα3/Dβ1 vs. Dα1/Dα2/Dα3/Dβ1): 0.07 | Difference of Imax values [37]: -0.043 | Difference of pEC50 values [37]: 0.62 | Difference of Imax values (Dα3/Dβ1 vs. Dα1/Dα2/Dβ1): -0.009 | Difference of pEC50 values (Dα3/Dβ1 vs. Dα1/Dα2/Dβ1): 0.88 | Difference of Imax values (Dα3/Dβ1 vs. Dα1/Dα2/Dβ1/Dβ2): -0.058 | Difference of pEC50 values (Dα3/Dβ1 vs. Dα1/Dα2/Dβ1/Dβ2): 0.70 | Difference of Imax values (Dα3/Dβ1 vs. Dα1/Dα3/Dβ1): -0.031 | Difference of pEC50 values (Dα3/Dβ1 vs. Dα1/Dα3/Dβ1): -0.27 | Difference of Imax values (Dα3/Dβ1 vs. Dα1/Dα3/Dβ1/Dβ2): -0.091 | Difference of pEC50 values (Dα3/Dβ1 vs. Dα1/Dα3/Dβ1/Dβ2): -0.20 | Difference of Imax values (Dα3/Dβ1 vs. Dα1/Dβ1/Dβ2): -0.027 | Difference of pEC50 values (Dα3/Dβ1 vs. Dα1/Dβ1/Dβ2): -0.06 | Difference of Imax values (Dα3/Dβ1 vs. Dα2/Dα3/Dβ1): -0.029 | Difference of pEC50 values (Dα3/Dβ1 vs. Dα2/Dα3/Dβ1): 0.88 | Difference of Imax values (Dα3/Dβ1 vs. Dα2/Dα3/Dβ1/Dβ2): -0.001 | Difference of pEC50 values (Dα3/Dβ1 vs. Dα2/Dα3/Dβ1/Dβ2): -0.28 | Difference of Imax values (Dα3/Dβ1 vs. Dα3/Dβ1/Dβ2): -0.006 | Difference of pEC50 values (Dα3/Dβ1 vs. Dα3/Dβ1/Dβ2): -0.52

From PMC9934367, “Functional impact of subunit composition and compensation on Drosophila melanogaster nicotinic receptors–targets of neonicotinoids” (PLOS Genetics, 2023)
